# Experimental data taken from publication PMC8748766, “The catalytic activity of TCPTP is auto-regulated by its intrinsically disordered tail and activated by Integrin alpha-1” (Nature Communications, 2022).
# Target: T1, TCPTPCAT (Homo sapiens, UniProt P17706)
# T1 construct: TCPTP and TCPTPCAT (residue 1–314) against 2 phosphotyrosine peptides derived from EGFR; His6 (N, cleaved yes); made in house; host or cells: E. coli BL21 (DE3) RIL
# T1 sequence (P17706 1-314 isoform P17706-2): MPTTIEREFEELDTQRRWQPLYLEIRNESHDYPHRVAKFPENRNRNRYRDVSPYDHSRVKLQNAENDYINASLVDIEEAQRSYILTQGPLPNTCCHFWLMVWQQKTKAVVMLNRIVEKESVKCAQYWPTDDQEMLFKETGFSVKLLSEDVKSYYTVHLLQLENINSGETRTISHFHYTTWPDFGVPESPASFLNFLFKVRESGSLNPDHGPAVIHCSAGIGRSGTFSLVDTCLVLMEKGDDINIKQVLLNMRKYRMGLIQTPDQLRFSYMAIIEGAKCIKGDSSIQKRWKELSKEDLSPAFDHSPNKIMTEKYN
# Experiment: NMR titration (2D HSQC/TROSY) binding to TCPTPCAT
# Settings: 2D [1H,15N] TROSY, unlabeled ligand added
# Source text: Polymerase chain reaction (PCR) fragments of TCPTP (residues: 1–387) TCPTPCAT (catalytic domain, residues: 1–288, 1–302 or 1–314), TCPTPTail (C-terminal tail, residues: 289–387 or 303–387) were amplified from full-length human TCPTP (TC45 isoform). TCPTP, TCPTPCAT (residues: 1–288, 1–314), and TCPTPTail (residues: 289–387) fragments were cloned into pMCSG7 including a N-terminal His6-tag using ligation-independent cloning. For all NMR experiments, the PCR fragments of TCPTP, TCPTPCAT (residues: 1–302) and TCPTPTail (residue: 303–387) were sub-cloned into pRP1B as previously described.
# NMR data were collected on either Bruker NEO 600 MHz or 800 MHz spectrometers equipped with TCI HCN z-gradient cryoprobes at 298 K or 283 K. NMR measurements of TCPTP’s variant construct were recorded using (^1H,^15N)-, (^2H,^15N)-, (^1H,^15N,^13C), or (^2H,^15N,^13C)-labeled protein at a final concentration of 0.6 mM for backbone assignment or 0.1 mM for titration in NMR buffer and 90% H2O/10% D2O. The sequence-specific backbone assignments of TCPTP (residues 1–387), TCPTPCAT (residues 1–302), TCPTPTail (residues 303–387) and other variants were achieved using 3D triple resonance experiments including […], 3D HNCA, 3D HN(CO)CA, 3D HN(CO)CACB, and 3D HNCACB either as HSQC or TROSY variations. All NMR data were processed using TopSpin 4.0.5[44] and analyzed using either CARA (http://www.cara.nmr.ch) and/or CcpNMR[45].
sequence,measurement,value
"RPLKKKMEKRPLKKKMEK [ITGA1_TR, ITGA1 tandem repeat (2x ITGA1_TCT): …]","NMR titration: CSPs in (2H,15N)-labeled TCPTPCAT",significant CSPs in the same residues
